Experimental data published in US9040524B2, “Antifungal 5,6-dihydro-4H-pyrrolo[1,2-a][1,4]-benzodiazepines and 6H-pyrrolo[1,2-a][1,4]benzodiazepines substituted with bicycle benzene derivatives” (JANSSEN PHARMACEUTICA NV, priority 2010, dated 2015).

What was measured:
Cryptococcus neoformans = assay: Antifungal activity in vitro, resazurin growth inhibition screen: Cryptococcus neoformans; type: cell-based; conditions: Cryptococcus neoformans B66663; for IC50: read-out: Inf. F pIC50 (converted)
Method in brief: (§1)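 Growth inhibition is measured with resazurin against untreated fungal culture (100%) and medium blank (0%). Isolates thawed from cryostocks give 10^3 cfu per well in RPMI-MOPS. The dose range peaks at 64 μM in test.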

Trichophyton rubrum = assay: Antifungal activity in vitro, resazurin growth inhibition screen: Trichophyton rubrum; type: cell-based; conditions: Trichophyton rubrum B68183; for IC50: read-out: Inf. C pIC50 (converted)
Method in brief: as §1

Aspergillus fumigatus = assay: Antifungal activity in vitro, resazurin growth inhibition screen: Aspergillus fumigatus; type: cell-based; conditions: Aspergillus fumigatus B42928; for IC50: read-out: Inf. E pIC50 (converted)
Method in brief: as §1

Microsporum canis = assay: Antifungal activity in vitro, resazurin growth inhibition screen: Microsporum canis; type: cell-based; conditions: Microsporum canis B68128; for IC50: read-out: Inf. B pIC50 (converted)
Method in brief: as §1

Candida parapsilosis = assay: Antifungal activity in vitro, resazurin growth inhibition screen: Candida parapsilosis; type: cell-based; conditions: Candida parapsilosis B66126; for IC50: Lodderomyces parapsilosis, read-out: Inf. D pIC50 (converted)
Method in brief: as §1

Sporothrix schenkii = assay: Antifungal activity in vitro, resazurin growth inhibition screen: Sporothrix schenkii; type: cell-based; conditions: Sporothrix schenkii B62482; for IC50: read-out: Inf. A pIC50 (converted)
Method in brief: as §1

[1] = system: Trichophyton mentagrophytes; assay: Antifungal activity in vitro, resazurin growth inhibition screen: Trichophyton mentagrophytes; type: cell-based; conditions: Trichophyton mentagrophytes B70554; for IC50: read-out: Inf. G pIC50 (converted)
Method in brief: as §1

Scedosporium prolificans = assay: Antifungal activity in vitro, resazurin growth inhibition screen: Scedosporium prolificans; type: cell-based; conditions: Scedosporium prolificans IHEM21157; for IC50: Lomentospora prolificans, read-out: Inf. I pIC50 (converted)
Method: (§2) The standard susceptibility screen was performed in 96-well plates (U-bottom, Greiner Bio-One). Serial dilutions (2-fold or 4-fold) of 20 mM compound stock solutions were made in 100% DMSO, followed by an intermediate dilution step in water. These serial dilutions (10 μl) were then spotted onto test-plates that could be stored in the dark at 4° C. for a maximum period of 2 weeks. An adequate broad dose-range was included with 64 μM as the highest in-test concentration. […] The different fungal species/isolates (Table 3a) were cryopreserved and 1/1000 diluted in medium just prior to use. A standard inoculum of 200 μl containing 10^3 colony-forming unit (cfu) was then added to each well. A positive control (100% growth=fungal culture without antifungal) and a negative control (0% growth=RPMI-MOPS medium) were included on each plate.

Rhizopus oryzae = assay: Antifungal activity in vitro, resazurin growth inhibition screen: Rhizopus oryzae; type: cell-based; conditions: Rhizopus oryzae IHEM5223; for IC50: Rhizopus arrhizus, read-out: Inf. J pIC50 (converted)
Method: as §2

Scedosporium apiospermum = assay: Antifungal activity in vitro, resazurin growth inhibition screen: Scedosporium apiospermum; type: cell-based; conditions: Scedosporium apiospermum IHEM3817; for IC50: read-out: Inf. H pIC50 (converted)
Method: as §2

Rhizomucor miehei = assay: Antifungal activity in vitro, resazurin growth inhibition screen: Rhizomucor miehei; type: cell-based; conditions: Rhizomucor miehei IHEM13391; for IC50: read-out: Inf. K pIC50 (converted)
Method: as §2

SMILES | IC50 (Cryptococcus neoformans) | IC50 (Trichophyton rubrum) | IC50 (Aspergillus fumigatus) | IC50 (Microsporum canis) | IC50 (Candida parapsilosis) | IC50 (Sporothrix schenkii) | melting point | IC50 [1] | other results
CN1C(=O)C(C)(C)c2cc(C3=NCc4c(Cl)cccc4-n4cccc43)ccc21 [Compound 1, 5-(7-chloro-6H-pyrrolo[1,2-a][1,4]benzodiazepin-4-yl)-1,3-dihydro-1,3,3-trimethyl-2H-indol-2-one] | 4.27 µM | 7.94 µM | 2.24 µM | 9.33 µM | > 64.6 µM | > 64.6 µM | 233.7 to 235.1 °C | 26.3 µM | –
Cl.Clc1cccc2c1CNC(c1ccc3c(c1)CCC3)c1cccn1-2 (stereo not drawn) [Compound 12, 7-chloro-4-(2,3-dihydro-1H-inden-5-yl)-5,6-dihydro-4H-pyrrolo[1,2-a][1,4]benzo-diazepine .HCl] | 3.02 µM | 0.138 µM | 0.151 µM | 0.38 µM | 0.575 µM | 64.6 µM | 242.7 to 243.5 °C | 0.0589 µM | IC50 (Scedosporium prolificans): > 64.6 µM; IC50 (Rhizopus oryzae): > 64.6 µM; IC50 (Scedosporium apiospermum): > 64.6 µM; IC50 (Rhizomucor miehei): > 64.6 µM
Clc1cccc2c1CN=C(c1ccc3c(c1)CCC3)c1cccn1-2 [Compound 20, 7-chloro-4-(2,3-dihydro-1H-inden-5-yl)-6H-pyrrolo[1,2-a][1,4]benzodiazepine] | 0.38 µM | 0.0708 µM | 0.269 µM | 0.129 µM | 0.339 µM | 2 µM | 181.3 to 182.7 °C | – | IC50 (Scedosporium prolificans): 0.851 µM; IC50 (Rhizopus oryzae): > 11.2 µM; IC50 (Scedosporium apiospermum): 8.91 µM; IC50 (Rhizomucor miehei): 13.8 µM
Clc1cccc2c1CN=C(c1ccc3c(c1)CCCC3)c1cccn1-2 [Compound 21, 7-chloro-4-(5,6,7,8-tetrahydro-2-naphthalenyl)-6H-pyrrolo[1,2-a][1,4]benzo-diazepine] | 0.339 µM | 0.17 µM | 0.0468 µM | 0.49 µM | 1.41 µM | 1.38 µM | 180 to 181.5 °C | 0.603 µM | IC50 (Scedosporium prolificans): 0.0398 µM; IC50 (Rhizopus oryzae): 2 µM; IC50 (Scedosporium apiospermum): 0.12 µM; IC50 (Rhizomucor miehei): 0.933 µM
Clc1ccc2c(c1Cl)CN=C(c1ccc3c(c1)CCC3)c1cccn1-2 [Compound 22, 7,8-dichloro-4-(2,3-dihydro-1H-inden-5-yl)-6H-pyrrolo[1,2-a][1,4]benzodiazepine] | 2.51 µM | 1 µM | 14.1 µM | 3.02 µM | > 32.4 µM | > 32.4 µM | 199.3 to 201.6 °C | – | –
Clc1ccc(Cl)c2c1CN=C(c1ccc3c(c1)CCC3)c1cccn1-2 [Compound 24, 7,10-dichloro-4-(2,3-dihydro-1H-inden-5-yl)-6H-pyrrolo[1,2-a][1,4]benzodiazepine] | > 32.4 µM | 3.98 µM | > 32.4 µM | 8.91 µM | > 32.4 µM | > 32.4 µM | 194 to 194.2 °C | 6.03 µM | –
Clc1cc(Cl)c2c(c1)CN=C(c1ccc3c(c1)CCC3)c1cccn1-2 [Compound 25, 8,10-dichloro-4-(2,3-dihydro-1H-inden-5-yl)-6H-pyrrolo[1,2-a][1,4]benzodiazepine] | 1 µM | 0.794 µM | 0.155 µM | 0.832 µM | > 64.6 µM | 2 µM | 178.5 to 180.2 °C | 0.38 µM | IC50 (Rhizopus oryzae): > 64.6 µM; IC50 (Scedosporium apiospermum): > 64.6 µM; IC50 (Rhizomucor miehei): 39.8 µM
Clc1cccc2c1-n1cccc1C(c1ccc3c(c1)CCCO3)=NC2 [Compound 43, 10-chloro-4-(3,4-dihydro-2H-1-benzopyran-6-yl)-6H-pyrrolo[1,2-a][1,4]benzo-diazepine] | 0.209 µM | 0.129 µM | 0.141 µM | 0.158 µM | 4.37 µM | 0.912 µM | 103.7 °C | 0.219 µM | –
O=C1CCc2ccc(C3=NCc4c(Cl)cccc4-n4cccc43)cc21 [Compound 55, 6-(7-chloro-6H-pyrrolo[1,2-a][1,4]benzodiazepin-4-yl)-2,3-dihydro-1H-inden-1-one] | > 64.6 µM | 1.95 µM | > 64.6 µM | 3.89 µM | > 64.6 µM | > 64.6 µM | 214 to 217 °C | 25.1 µM | –
O=C1CCCc2cc(C3=NCc4ccc(Cl)cc4-n4cccc43)ccc21 [Compound 60, 6-(9-chloro-6H-pyrrolo[1,2-a][1,4]benzodiazepin-4-yl)-3,4-dihydro-1 (2H)-naphthalenone] | 7.08 µM | > 64.6 µM | > 64.6 µM | > 64.6 µM | 3.63 µM | 30.2 µM | > 280 °C | > 64.6 µM | –
O=C1OCc2ccc(C3=NCc4c(Cl)cccc4-n4cccc43)cc21 [Compound 62, 6-(7-chloro-6H-pyrrolo[1,2-a][1,4]benzodiazepin-4-yl)-1(3H)-isobenzofuranone] | > 64.6 µM | > 64.6 µM | > 64.6 µM | > 64.6 µM | > 64.6 µM | > 64.6 µM | 107.9 °C (dec.) | > 64.6 µM | –
O=C1OCc2ccc(C3=NCc4c(Cl)cc(Cl)cc4-n4cccc43)cc21 [Compound 64, 6-(7,9-dichloro-6H-pyrrolo[1,2-a][1,4]benzodiazepin-4-yl)-1 (3H)-isobenzofuranone] | > 64.6 µM | > 64.6 µM | > 64.6 µM | > 64.6 µM | > 64.6 µM | > 64.6 µM | 210.5 to 212 °C | > 64.6 µM | –
Fc1cccc2c1CN=C(c1ccc3c(c1)CCC(F)(F)O3)c1cccn1-2 [Compound 70, 4-(2,2-difluoro-3,4-dihydro-2H-1-benzopyran-6-yl)-7-fluoro-6H-pyrrolo[1,2-a]-[1,4]benzodiazepine] | 0.955 µM | > 64.6 µM | > 64.6 µM | 64.6 µM | 0.759 µM | > 64.6 µM | 158.9 to 159.3 °C | > 64.6 µM | –
Fc1cc(F)c2c(c1)-n1cccc1C(c1ccc3c(c1)OC(F)(F)O3)=NC2 [Compound 78, 4-(2,2-difluoro-1,3-benzodioxol-5-yl)-7,9-difluoro-6H-pyrrolo[1,2-a][1,4]benzo-diazepine] | – | – | – | – | – | – | – | – | Inf. F pIC50 (Cryptococcus neoformans): <4.19; Inf. C pIC50 (Trichophyton rubrum): 6.85; Inf. E pIC50 (Aspergillus fumigatus): 6.44; Inf. I pIC50 (Scedosporium prolificans): 5.98; Inf. J pIC50 (Rhizopus oryzae): <4.19; Inf. H pIC50 (Scedosporium apiospermum): 4.19; Inf. B pIC50 (Microsporum canis): 6.26; Inf. D pIC50 (Candida parapsilosis): 5.64; Inf. A pIC50 (Sporothrix schenkii): 5.28; Inf. K pIC50 (Rhizomucor miehei): <4.19; Inf. G pIC50 [1]: 6.24
FC1(F)Oc2ccc(C3=NCc4c(Cl)cc(Cl)cc4-n4cccc43)cc2O1 [Compound 79, 7,9-dichloro-4-(2,2-difluoro-1,3-benzodioxol-5-yl)-6H-pyrrolo[1,2-a][1,4]benzo-diazepine] | – | – | – | – | – | – | – | – | Inf. F pIC50 (Cryptococcus neoformans): 5.60; Inf. C pIC50 (Trichophyton rubrum): 6.29; Inf. E pIC50 (Aspergillus fumigatus): 5.71; Inf. I pIC50 (Scedosporium prolificans): 5.98; Inf. J pIC50 (Rhizopus oryzae): <4.19; Inf. H pIC50 (Scedosporium apiospermum): 5.72; Inf. B pIC50 (Microsporum canis): 6.28; Inf. D pIC50 (Candida parapsilosis): 5.62; Inf. A pIC50 (Sporothrix schenkii): 4.90; Inf. K pIC50 (Rhizomucor miehei): <4.19; Inf. G pIC50 [1]: 5.79
CN1CCc2cc(C3=NCc4c(Cl)cccc4-n4cccc43)ccc21 [Compound 83, 7-chloro-4-(2,3-dihydro-1-methyl-1H-indol-5-yl)-6H-pyrrolo[1,2-a][1,4]benzo-diazepine] | – | – | – | – | – | – | – | – | Inf. F pIC50 (Cryptococcus neoformans): 5.57; Inf. C pIC50 (Trichophyton rubrum): 5.71; Inf. E pIC50 (Aspergillus fumigatus): 5.89; Inf. I pIC50 (Scedosporium prolificans): 5.85; Inf. J pIC50 (Rhizopus oryzae): <4.19; Inf. H pIC50 (Scedosporium apiospermum): 4.76; Inf. B pIC50 (Microsporum canis): 5.66; Inf. D pIC50 (Candida parapsilosis): 5.28; Inf. A pIC50 (Sporothrix schenkii): 5.14; Inf. K pIC50 (Rhizomucor miehei): <4.19; Inf. G pIC50 [1]: 5.06
